Source: patent US11945798B2, “Substituted aminopyridine compounds as EGFR inhibitors” (YUHAN CORPORATION, priority 2021, dated 2024)

What was measured:
EGFR del19/T790M/C797S = EGFR del19/T790M/C797S (Homo sapiens, UniProt P00533, C797S/DEL746-750/T790M); test: Biochemical EGFR kinase assay (Lance Ultra TR-FRET), del19/T790M/C797S; settings: Km ATP; read-out: IC50 del19/T790M/C797S (nM) Km ATP
Method: (§1) Biochemical EGFR kinase assays were conducted using Lance Ultra time-resolved fluorescence resonance energy transfer (TR-FRET) technology from Perkin-Elmer. Compounds of the invention were initially diluted to 20 mM in 100% DMSO for storage and made into kinase buffer solution to create a compound concentration ranging from 0.003 μM and 10 μM.
(§2) Each kinase reactions were incubated at room temperature for 1 hour and then stopped by the addition of 4 μL of stop solution (10 mM EDTA). The specific Europium-labeled-anti-phosphopeptide antibody (PerkinElmer, AD0069) diluted in LANCE detection buffer was then added to a final concentration of 2 nM. After 60 minutes incubation at room temperature the LANCE signal was measured on an EnVision Multilabel Reader (Perkin-Elmer). Excitation wavelength was set at 320 nm and emission monitored at 615 nm (donor) and 665 nm (acceptor). The IC50 values were determined using GraphPad prism software (GraphPad Software, Inc., San Diego, CA, USA).

EGFR del19/C797S = EGFR del19/C797S (Homo sapiens, UniProt P00533, C797S/DEL746-750); test: Biochemical EGFR kinase assay (Lance Ultra TR-FRET), del19/C797S; settings: Km ATP; read-out: IC50 del19/C797S (nM) Km ATP
EGFR del19/C797S, sequence (P00533 with tags, fused parts or gaps DEL746-750/C797S): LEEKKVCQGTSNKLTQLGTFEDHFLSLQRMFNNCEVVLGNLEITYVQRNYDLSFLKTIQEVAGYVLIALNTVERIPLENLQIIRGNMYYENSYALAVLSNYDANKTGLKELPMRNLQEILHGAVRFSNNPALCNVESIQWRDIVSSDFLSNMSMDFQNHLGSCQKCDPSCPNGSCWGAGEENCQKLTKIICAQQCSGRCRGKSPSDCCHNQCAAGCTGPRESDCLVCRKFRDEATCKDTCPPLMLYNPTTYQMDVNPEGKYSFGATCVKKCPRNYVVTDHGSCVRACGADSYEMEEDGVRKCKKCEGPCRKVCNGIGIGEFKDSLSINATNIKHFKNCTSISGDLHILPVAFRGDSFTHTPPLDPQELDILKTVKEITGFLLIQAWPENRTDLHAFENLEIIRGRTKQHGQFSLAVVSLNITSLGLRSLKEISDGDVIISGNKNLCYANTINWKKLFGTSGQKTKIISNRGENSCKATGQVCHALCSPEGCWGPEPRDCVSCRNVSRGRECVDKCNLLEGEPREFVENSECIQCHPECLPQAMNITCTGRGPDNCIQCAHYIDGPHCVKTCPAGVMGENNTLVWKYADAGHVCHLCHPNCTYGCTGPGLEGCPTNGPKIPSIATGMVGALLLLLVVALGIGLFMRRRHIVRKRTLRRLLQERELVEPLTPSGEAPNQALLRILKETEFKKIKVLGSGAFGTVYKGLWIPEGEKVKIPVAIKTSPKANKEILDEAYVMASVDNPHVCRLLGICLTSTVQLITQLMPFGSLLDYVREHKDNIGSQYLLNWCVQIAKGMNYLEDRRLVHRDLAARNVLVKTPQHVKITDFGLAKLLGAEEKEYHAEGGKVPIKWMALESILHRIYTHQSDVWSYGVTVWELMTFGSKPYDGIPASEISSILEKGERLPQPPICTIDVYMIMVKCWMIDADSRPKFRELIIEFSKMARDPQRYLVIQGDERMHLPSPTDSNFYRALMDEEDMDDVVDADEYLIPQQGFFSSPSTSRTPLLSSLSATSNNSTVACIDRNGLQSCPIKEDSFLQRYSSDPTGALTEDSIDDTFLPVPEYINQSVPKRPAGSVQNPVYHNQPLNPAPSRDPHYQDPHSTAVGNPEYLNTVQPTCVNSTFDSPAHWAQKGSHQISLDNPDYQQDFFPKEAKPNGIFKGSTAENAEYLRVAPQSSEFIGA
Method: as §1, §2

EGFR L858R/T790M/C797S = EGFR L858R/T790M/C797S (Homo sapiens, UniProt P00533, C797S/L858R/T790M); test: Biochemical EGFR kinase assay (Lance Ultra TR-FRET), L858R/T790M/C797S; settings: Km ATP; read-out: IC50 L858R/T790M/C797S (nM) Km ATP
EGFR L858R/T790M/C797S, sequence (P00533 25-1210 T790M/C797S/L858R): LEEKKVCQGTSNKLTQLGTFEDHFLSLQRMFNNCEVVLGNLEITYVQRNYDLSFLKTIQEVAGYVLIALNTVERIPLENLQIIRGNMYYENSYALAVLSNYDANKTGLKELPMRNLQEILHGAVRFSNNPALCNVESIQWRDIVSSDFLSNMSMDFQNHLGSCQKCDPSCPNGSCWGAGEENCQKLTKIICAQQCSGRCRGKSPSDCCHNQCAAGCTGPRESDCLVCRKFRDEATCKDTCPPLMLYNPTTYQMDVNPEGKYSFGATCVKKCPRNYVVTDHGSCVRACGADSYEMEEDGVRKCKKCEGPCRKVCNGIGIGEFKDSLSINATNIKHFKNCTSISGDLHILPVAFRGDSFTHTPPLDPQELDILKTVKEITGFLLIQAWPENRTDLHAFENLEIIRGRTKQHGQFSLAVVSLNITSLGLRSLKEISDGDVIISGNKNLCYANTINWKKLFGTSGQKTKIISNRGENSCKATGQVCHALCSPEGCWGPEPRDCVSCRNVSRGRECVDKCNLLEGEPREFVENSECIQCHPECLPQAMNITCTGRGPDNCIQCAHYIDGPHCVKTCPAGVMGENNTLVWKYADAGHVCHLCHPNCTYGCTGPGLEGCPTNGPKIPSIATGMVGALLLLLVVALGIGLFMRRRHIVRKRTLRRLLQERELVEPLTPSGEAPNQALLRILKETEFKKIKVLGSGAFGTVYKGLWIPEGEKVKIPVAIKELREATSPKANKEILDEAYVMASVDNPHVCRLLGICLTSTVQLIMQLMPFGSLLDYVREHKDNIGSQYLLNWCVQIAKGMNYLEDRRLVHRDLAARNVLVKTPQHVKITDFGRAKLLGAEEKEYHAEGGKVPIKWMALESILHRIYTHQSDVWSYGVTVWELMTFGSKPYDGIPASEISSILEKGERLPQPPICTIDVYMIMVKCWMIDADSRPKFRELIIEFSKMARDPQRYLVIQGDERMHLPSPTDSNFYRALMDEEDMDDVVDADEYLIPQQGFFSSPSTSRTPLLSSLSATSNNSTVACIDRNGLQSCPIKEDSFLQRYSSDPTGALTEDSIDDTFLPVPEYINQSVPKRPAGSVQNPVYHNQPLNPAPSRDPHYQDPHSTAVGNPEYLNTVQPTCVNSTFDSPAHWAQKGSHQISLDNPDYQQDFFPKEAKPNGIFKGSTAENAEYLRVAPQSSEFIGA
Method: as §1, §2

EGFR wildtype (WT) = EGFR wildtype (WT) (Homo sapiens, UniProt P00533); test: Biochemical EGFR kinase assay (Lance Ultra TR-FRET), wildtype; settings: Km ATP; read-out: IC50 WT (nM) Km ATP
EGFR wildtype (WT), sequence (P00533 25-1210): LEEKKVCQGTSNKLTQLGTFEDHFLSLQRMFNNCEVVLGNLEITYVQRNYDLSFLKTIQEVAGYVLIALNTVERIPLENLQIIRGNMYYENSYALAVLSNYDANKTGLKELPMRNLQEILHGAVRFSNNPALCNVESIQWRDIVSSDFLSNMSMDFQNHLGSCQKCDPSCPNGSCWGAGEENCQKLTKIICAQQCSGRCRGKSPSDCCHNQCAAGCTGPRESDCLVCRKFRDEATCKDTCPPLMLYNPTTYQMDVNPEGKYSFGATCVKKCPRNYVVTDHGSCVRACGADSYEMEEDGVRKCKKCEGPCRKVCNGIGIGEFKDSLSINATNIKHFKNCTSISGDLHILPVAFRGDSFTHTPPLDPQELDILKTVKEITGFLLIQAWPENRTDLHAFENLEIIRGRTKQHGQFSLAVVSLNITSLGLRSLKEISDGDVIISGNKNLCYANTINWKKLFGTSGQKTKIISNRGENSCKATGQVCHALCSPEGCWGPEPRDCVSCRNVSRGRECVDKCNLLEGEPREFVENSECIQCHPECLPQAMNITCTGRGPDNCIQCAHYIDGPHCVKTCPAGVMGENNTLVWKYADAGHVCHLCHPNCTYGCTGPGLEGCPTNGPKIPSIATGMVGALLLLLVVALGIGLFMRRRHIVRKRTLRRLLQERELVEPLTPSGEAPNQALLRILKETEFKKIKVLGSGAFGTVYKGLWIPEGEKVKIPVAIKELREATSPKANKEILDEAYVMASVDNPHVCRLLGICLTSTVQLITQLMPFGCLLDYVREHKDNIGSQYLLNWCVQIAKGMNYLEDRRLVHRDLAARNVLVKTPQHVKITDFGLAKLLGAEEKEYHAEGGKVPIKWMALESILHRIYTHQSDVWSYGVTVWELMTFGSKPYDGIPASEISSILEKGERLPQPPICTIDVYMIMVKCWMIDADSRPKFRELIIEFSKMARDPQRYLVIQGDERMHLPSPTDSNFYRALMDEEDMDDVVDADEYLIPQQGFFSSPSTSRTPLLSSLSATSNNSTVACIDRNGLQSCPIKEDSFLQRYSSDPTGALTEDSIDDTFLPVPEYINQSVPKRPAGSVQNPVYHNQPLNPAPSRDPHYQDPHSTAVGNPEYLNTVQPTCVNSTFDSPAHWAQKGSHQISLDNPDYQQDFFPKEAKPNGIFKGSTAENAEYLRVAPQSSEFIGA
Method: as §1, §2

EGFR del19/T790M/C797S, sequence (P00533 with tags, fused parts or gaps DEL746-750/T790M/C797S): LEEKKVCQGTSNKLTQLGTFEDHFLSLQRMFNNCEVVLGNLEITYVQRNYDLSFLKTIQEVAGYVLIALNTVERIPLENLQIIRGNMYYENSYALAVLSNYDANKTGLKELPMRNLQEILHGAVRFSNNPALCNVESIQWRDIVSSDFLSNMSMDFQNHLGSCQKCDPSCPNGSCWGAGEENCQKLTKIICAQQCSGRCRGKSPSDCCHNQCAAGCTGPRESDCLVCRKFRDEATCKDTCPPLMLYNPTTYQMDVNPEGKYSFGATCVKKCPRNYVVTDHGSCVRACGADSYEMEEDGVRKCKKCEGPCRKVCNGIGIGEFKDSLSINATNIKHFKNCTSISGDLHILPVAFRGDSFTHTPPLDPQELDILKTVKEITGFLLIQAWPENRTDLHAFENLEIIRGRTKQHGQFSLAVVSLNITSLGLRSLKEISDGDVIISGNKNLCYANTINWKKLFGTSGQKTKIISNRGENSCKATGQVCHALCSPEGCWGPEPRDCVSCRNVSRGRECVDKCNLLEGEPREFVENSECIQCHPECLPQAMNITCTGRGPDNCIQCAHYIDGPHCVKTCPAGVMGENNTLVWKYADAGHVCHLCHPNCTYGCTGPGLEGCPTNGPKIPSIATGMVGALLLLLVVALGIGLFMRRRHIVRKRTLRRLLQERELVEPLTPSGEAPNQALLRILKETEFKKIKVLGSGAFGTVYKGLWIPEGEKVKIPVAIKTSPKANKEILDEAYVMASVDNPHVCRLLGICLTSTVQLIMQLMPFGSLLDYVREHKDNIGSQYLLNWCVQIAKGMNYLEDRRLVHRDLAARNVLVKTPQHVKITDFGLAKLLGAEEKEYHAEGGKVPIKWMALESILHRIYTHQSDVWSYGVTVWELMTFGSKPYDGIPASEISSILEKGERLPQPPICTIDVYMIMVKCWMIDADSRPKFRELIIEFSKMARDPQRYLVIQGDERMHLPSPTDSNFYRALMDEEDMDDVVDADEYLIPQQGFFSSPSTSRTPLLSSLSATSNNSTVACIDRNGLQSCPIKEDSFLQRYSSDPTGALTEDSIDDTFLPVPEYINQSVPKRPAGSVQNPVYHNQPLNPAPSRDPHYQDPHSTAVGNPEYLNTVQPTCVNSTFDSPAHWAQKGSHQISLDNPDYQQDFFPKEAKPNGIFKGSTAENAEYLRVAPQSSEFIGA

Row | SMILES | IC50 (EGFR del19/T790M/C797S) | IC50 (EGFR del19/C797S) | IC50 (EGFR L858R/T790M/C797S) | IC50 (EGFR wildtype (WT))
1 | O=C(c1cnc(Nc2ccnc(-c3cnn(S(=O)(=O)C4CC4)c3)n2)cc1NC1CC1)C1CC1 [Example 2, Cyclopropyl(4-(cyclopropylamino)-6-((2-(1-(cyclopropylsulfonyl)-1H-pyrazol-4-yl)pyrimidin-4-yl)amino)pyridin-3-yl)methanone] | 72 nM | 536 nM |  | 
2 | O=C(c1cnc(Nc2ccnc(-c3cnn(S(=O)(=O)C4CC4)c3)n2)cc1NCCF)C1CC1 [Example 3, Cyclopropyl(6-((2-(1-(cyclopropylsulfonyl)-1H-pyrazol-4-yl)pyrimidin-4-yl)amino)-4-((2-fluoroethyl)amino)pyridin-3-yl)methanone] | 0.9 nM | 232 nM | 5.4 nM | 4200 nM
3 | O=C(c1cnc(Nc2ccnc(-c3cnn(S(=O)(=O)C4CC4)c3)n2)cc1NCCCCF)C1CC1 [Example 4, Cyclopropyl(6-((2-(1-(cyclopropylsulfonyl)-1H-pyrazol-4-yl)pyrimidin-4-yl)amino)-4-((4-fluorobutyl)amino)pyridin-3-yl)methanone] | 1.3 nM | 83.6 nM | 11.6 nM | 2400 nM
4 | O=C(c1cnc(Nc2ccnc(-c3cnn(S(=O)(=O)C4CC4)c3)n2)cc1NCCCC(F)F)C1CC1 [Example 5, Cyclopropyl(6-((2-(1-(cyclopropylsulfonyl)-1H-pyrazol-4-yl)pyrimidin-4-yl)amino)-4-((4,4-difluorobutyl)amino)pyridin-3-yl)methanone] | 1.8 nM | 132 nM | 18 nM | 2970 nM
5 | O=C(c1cnc(Nc2ccnc(-c3cnn(S(=O)(=O)C4CC4)c3)n2)cc1NCCC1CCOC1)C1CC1 (stereo not drawn) [Example 6, Cyclopropyl(6-((2-(1-(cyclopropylsulfonyl)-1H-pyrazol-4-yl)pyrimidin-4-yl)amino)-4-((2-(tetrahydrofuran-3-yl)ethyl)amino)pyridin-3-yl)methanone] | 0.6 nM | 78 nM | 4.5 nM | 890 nM
6 | C[C@H](CCO)Nc1cc(Nc2ccnc(-c3cnn(S(=O)(=O)C4CC4)c3)n2)ncc1C(=O)C1CC1 [Example 7, (R)-Cyclopropyl(6-((2-(1-(cyclopropylsulfonyl)-1H-pyrazol-4-yl)pyrimidin-4-yl)amino)-4-((4-hydroxybutan-2-yl)amino)pyridin-3-yl)methanone] | 0.5 nM | 49.2 nM | 2.7 nM | 426 nM
7 | O=C(c1cnc(Nc2ccnc(-c3cnn(S(=O)(=O)C4CC4)c3)n2)cc1NCC1CCCCO1)C1CC1 (stereo not drawn) [Example 10, Cyclopropyl(6-((2-(1-(cyclopropylsulfonyl)-1H-pyrazol-4-yl)pyrimidin-4-yl)amino)-4-(((tetrahydro-2H-pyran-2-yl)methyl)amino)pyridin-3-yl)methanone] | 2.1 nM | 553 nM | 13.7 nM | 1170 nM
8 | C[C@@H](O)CCNc1cc(Nc2ccnc(-c3cnn(S(=O)(=O)C4CC4)c3)n2)ncc1C(=O)C1CC1 [Example 11, (R)-Cyclopropyl(6-((2-(1-(cyclopropylsulfonyl)-1H-pyrazol-4-yl)pyrimidin-4-yl)amino)-4-((3-hydroxybutyl)amino)pyridin-3-yl)methanone] | 0.4 nM | 58.9 nM | 2.3 nM | 188 nM
9 | CC(O)C(C)(C)Nc1cc(Nc2ccnc(-c3cnn(S(=O)(=O)C4CC4)c3)n2)ncc1C(=O)C1CC1 (stereo not drawn) [Example 12, Cyclopropyl(6-((2-(1-(cyclopropylsulfonyl)-1H-pyrazol-4-yl)pyrimidin-4-yl)amino)-4-((3-hydroxy-2-methylbutan-2-yl)amino)pyridin-3-yl)methanone] | 0.4 nM | 58.2 nM | 0.6 nM | 228 nM
10 | CN(C)CCNc1cc(Nc2ccnc(-c3cnn(S(=O)(=O)C4CC4)c3)n2)ncc1C(=O)C1CC1 [Example 14, Cyclopropyl(6-((2-(1-(cyclopropylsulfonyl)-1H-pyrazol-4-yl)pyrimidin-4-yl)amino)-4-((2-(dimethylamino)ethyl)amino)pyridin-3-yl)methanone] | 4.7 nM | 459 nM | 31.9 nM | 3400 nM
11 | O=C(c1cnc(Nc2ccnc(-c3cnn(S(=O)(=O)C4CC4)c3)n2)cc1NCc1cnn(CCF)c1)C1CC1 [Example 17, Cyclopropyl(6-((2-(1-(cyclopropylsulfonyl)-1H-pyrazol-4-yl)pyrimidin-4-yl)amino)-4-(((1-(2-fluoroethyl)-1H-pyrazol-4-yl)methyl)amino)pyridin-3-yl)methanone] | 10.9 nM | 1 nM | 15.5 nM | 
12 | O=C(c1cnc(Nc2ccnc(-c3cnn(S(=O)(=O)C4CC4)c3)n2)cc1NCC1CCN(CC2CC2)CC1)C1CC1 [Example 18, Cyclopropyl(4-(((1-(cyclopropylmethyl)piperidin-4-yl)methyl)amino)-6-((2-(1-(cyclopropylsulfonyl)-1H-pyrazol-4-yl)pyrimidin-4-yl)amino)pyridin-3-yl)methanone] | 13.5 nM | 1 nM | 17.2 nM | 
13 | CN(C)Cc1ccc(CNc2cc(Nc3ccnc(-c4cnn(S(=O)(=O)C5CC5)c4)n3)ncc2C(=O)C2CC2)cn1 [Example 19, Cyclopropyl(6-((2-(1-(cyclopropylsulfonyl)-1H-pyrazol-4-yl)pyrimidin-4-yl)amino)-4-(((6-((dimethylamino)methyl)pyridin-3-yl)methyl)amino)pyridin-3-yl)methanone] | 3.1 nM | 159 nM | 3.8 nM | 682 nM
14 | O=C(c1cnc(Nc2ccnc(-c3cnn(S(=O)(=O)C4CC4)c3)n2)cc1NC[C@H]1CC[C@H](Cn2cccn2)CC1)C1CC1 [Example 44, (4-((((1r,4r)-4-((1H-Pyrazol-1-yl)methyl)cyclohexyl)methyl)amino)-6-((2-(1-(cyclopropylsulfonyl)-1H-pyrazol-4-yl)pyrimidin-4-yl)amino)pyridin-3-yl)(cyclopropyl)methanone] | 9 nM | 242 nM |  | 796 nM
15 | CN(C)CC1CCC(CNc2cc(Nc3ccnc(-c4cnn(C5CCOC5)c4)n3)ncc2C(=O)C2CC2)CC1 (stereo not drawn) [Example 62, Cyclopropyl(4-((((1r,4r)-4-((dimethylamino)methyl)cyclohexyl)methyl)amino)-6-((2-(1-(tetrahydrofuran-3-yl)-1H-pyrazol-4-yl)pyrimidin-4-yl)amino)pyridin-3-yl)methanone] | 9.8 nM | 363 nM | 9.4 nM | 
16 | CC(C)Nc1cc(Nc2ccnc(-c3cnn(S(=O)(=O)C4CC4)c3)n2)ncc1C(=O)NCC(F)F [Example 78, 6-((2-(1-(Cyclopropylsulfonyl)-1H-pyrazol-4-yl)pyrimidin-4-yl)amino)-N-(2,2-difluoroethyl)-4-(isopropylamino)nicotinamide] | 14.9 nM | 225 nM |  | 1140 nM
17 | CN(C)C[C@H]1CC[C@H](CNc2cc(Nc3ccnc(-c4cnn(S(=O)(=O)C5CC5)c4)n3)ncc2C(=O)N2CC(F)(F)C2)CC1 [Example 82, (6-((2-(1-(Cyclopropylsulfonyl)-1H-pyrazol-4-yl)pyrimidin-4-yl)amino)-4-((((1r,4r)-4-((dimethylamino)methyl)cyclohexyl)methyl)amino)pyridin-3-yl)(3,3-difluoroazetidin-1-yl)methanone] | 2.8 nM | 24.6 nM |  | 76.2 nM
